Experimental data: US8653023B1, “Dual beneficial effect of dopamine enhancing and neuroprotective actions of PKC delta inhibitors for treatment of Parkinson's disease” (Iowa State University Research Foundation, Inc., priority 2006, dated 2014)

Tests used:
[1] = system: primary mesencephalic dopaminergic neuronal cells; type: cell-based, mice; conditions: 10 μM MPP+ for 48 hrs
Protocol: Primary mesencephalic neuronal cultures were prepared from the ventral mesencephalon of gestational 16-18-day-old mice embryos as described previously (Yang et al., 2004). Mesencephalic tissues were dissected and maintained in ice-cold Ca^2+-free HESS and then dissociated in HESS solution containing trypsin-EDTA (0.25%) for 20 min at 37° C. The dissociated cells were then plated at equal density (0.5×10^6 cells) in 30-mm-diameter tissue culture wells precoated with poly-D-lysine (1 mg/ml). Cultures were maintained in a chemically defined medium consisting of neurobasal medium fortified with B-27 supplements, L-glutamine (500 μM), penicillin (100 IU/ml), and streptomycin (100 μg/ml) (Life Technologies). The cells were maintained in a humidified CO2 incubator (5% CO2, 37° C.) for 24 hr and then treated with cytosine arabinoside (10 μM) for 24 hr to inhibit glial cell proliferation. Half of the culture medium was replaced every 2 days. Approximately 6-7-day-old cultures were used for experiments. […]
After treatment, the primary mesencephalic neurons were fixed with 4% paraformaldehyde and processed for immunocytotochemical staining. […] Then the coverslips containing stained cells were washed with PBS, mounted on a slide, and viewed under a Nikon inverted fluorescence microscope (Model TE-2000U); images were captured with a SPOT digital camera (Diagnostic Instruments, Sterling Heights, Mich.).
We used Metamorph software (Universal Imaging, Version 5.0) for measurement of TH^+ cells and neuronal processes in primary neurons from each coverslip. For measurement of TH cell count, the images were first thresholded, and then neuronal count and volume were measured using the Integrated Morphometry Analysis (IMA) function. The data were logged to an Excel spreadsheet with defined row and column positions and then analyzed. […] The data were exported to an Excel spreadsheet and analyzed. TH^+ neurons and their processes were counted in at least six individual cultures for each treatment. This method is a modified version of methodology recently used for quantification of neuronal processes.

[2] = system: MPTP-treated C57 black mice; assay: MPTP-induced striatal dopamine depletion (HPLC-EC); type: in vivo; conditions: MPTP 30 mg/kg for 5 days alone
Protocol: (§1) Six to 8-week-old […] mice weighing 30 g were housed in standard conditions: constant temperature (22±1° C.), humidity (relative, 30%) and a 12-h light/dark cycle, and were allowed free access to food and water. The animals and protocol procedures were approved and supervised by the Committee on Animal Care (COAC) at the Iowa State University. Rottlerin was dissolved in 1% dimethyl sulfoxide (DMSO) and was administered intraperitoneally at various doses. An equal volume of DMSO was given to controls. Rottlerin and DMSO administrations were started 24 h before the injections of the MPTP and continued for 5 days in the MPTP model. In the chronic regimens of MPTP administration, MPTP in phosphate-buffered saline (PBS) was injected intraperitoneally at doses of 30 mg/kg, once a day. Mice were sacrificed 2 days after the MPTP injections, and the striata were dissected for catecholamine analysis. Additionally, rottlerin alone (0.3-20 mg/kg) was administered via intraperitoneally or orally and then brain tissues were subjected to neurochemical analyses (FIG. 8). The mesencephalons were fixed in 4% paraformaldehyde for 5 days for tyrosine hydroxylase (TH) immunostaining.
DA and DOPAC levels in brain striatal tissues were determined by high-performance liquid chromatography with electrochemical detection (HPLC-EC); samples were prepared as described previously (Kitazawa, Anantharam et al. 2001). Briefly, neurotransmitters were extracted from samples using 0.1M perchloric acid containing 0.05% Na2EDTA and 0.1% Na2S2O5. The extracts were filtered in 0.22 micron spin tubes and 20 μl of the samples was loaded for analysis. DA and DOPAC were separated isocratically by a reversed-phase column with a flow rate of 0.7 ml/min. An HPLC system (ESA Inc., Bedford, Mass.) with an ESA automatic sampler (model 542) was used for these experiments. The electrochemical detection (EC) system consisted of an ESA coulochem model 5100A with a microanalysis cell model 5014A and a guard cell model 5020 (ESA Inc., Bedford, Mass.). The DA and DOPAC levels were measured as pg/mg protein and expressed as percent of control.

[3] = system: MPTP-treated C57 black mice; assay: Locomotor activity of MPTP-treated mice (VersaMax); type: in vivo; conditions: MPTP treatment alone, 1 day after treatment, 20-min session
Description: Behavioral data were collected using VersaMax Animal Activity Monitors (AccuScan Model RXYZCM-16, Columbus, Ohio). Each chamber was 40×40×30.5 cm^3, made of clear Plexiglas and covered with a Plexiglas lid with air-holes. Infrared monitoring sensors were located every 2.54 cm along the perimeter (16 infrared beams along each side) and 2.5 cm above the floor. Two additional sets of 16 sensors were located 8.0 cm above the floor on opposite sides. Data were collected and analyzed by a VersaMax Analyzer (AccuScan Model CDA-8, Columbus, Ohio) which in turn sent information to an IBM computer where it was stored for future analyses. Locomotor activity was presented as horizontal movement and vertical movement. All data are expressed as percent of the vehicle-treated control group (mean 6 SEM) and were obtained 1 day after MPTP or vehicle treatment in a 20-min test session.

[4] = system: MPTP-treated C57 black mice; assay: TH+ neuron count in substantia nigra pars compacta of MPTP mice (stereology); type: in vivo; conditions: MPTP 30 mg/kg for 5 continuous days
Protocol: as §1
Brains removed following cervical dislocation were post-fixed in paraformaldehyde and used for TH immunolabelling and stereological studies. Fixed brains were cut into 30-μm sections and collected in cryoprotectant. Sections were rinsed in PBS at room temperature before immunostaining, then incubated with a anti-TH antibody as described (Thiruchelvam, McCormack et al. 2003; Thiruchelvam, Powers et al. 2004). The total number of TH^+ and TH Nissl-stained neurons in the SNpc were counted using the optical fractionator and previously described counting criteria (Thiruchelvam, McCormack et al. 2003; Thiruchelvam, Powers et al. 2004). After delineation of the region at low magnification (4× objective), every fourth section from the entire substantia nigra was sampled at higher magnification (100× objective) using StereoImager (Microbrightfield, Vt.).

[5] = system: dopaminergic N27 cells; conditions: cited from earlier work
[6] = system: tyrosine hydroxylase (TH); assay: TH activity (DOPA levels after NSD-1015) in N27 cells; type: cell-based, rat; conditions: okadaic acid 2 μM for 2 hr
Protocol: Plasmid pPKCδ^K376R-V5 encodes the loss of function PKCδ-V5 epitope tagged mutant protein; K376R refers to the mutation of the lysine residue at position 376 to arginine in the catalytic site resulting in inactivation of the kinase. Plasmid pLacZ-V5 encodes the β-galactosidase protein alone with a V5-epitope and is used as a vector control. N27 cells stably expressing PKCδ^K376R-V5 (herein referred to as PKCδ-DN cells) and LacZ alone-expressing cells (LacZ cells) were cultured as described previously (Kitazawa et al., 2005). PKCδ-DN or LacZ expressing N27 cells were identified by immunostaining of the C-terminal V5 epitope on expressed proteins and were differentiated with cAMP analogs (e.g. dibutyral cAMP) prior to experiments. PKCδ-DN and LacZ were also transiently expressed in mouse primary mesencephalic neurons using an AMAXA® Nucleofector™ kit (AMAXA GmbH, Germany). As described above, primary mesencephalic neurons were prepared from the midbrain of 16-18-day-old mice embryos. After digestion with trypsin-EDTA-HBSS, the primary neurons were homogenously resuspended with transfection buffer provided with the kit to a final concentration of 4-5×10^6 neurons/100 μl and mixed with 1 μg plasmid DNA encoding either PKCδ-DN-V5 or LacZ-V5. […] Transfection efficiency was >75% as determined by immunostaining of V5-expression. […]

[7] = system: tyrosine hydroxylase (TH); assay: TH phosphorylation in N27 cells (Western blot, immunofluorescence); type: cell-based, rat
Protocol: (§2) PC12 cells, differentiated N27 dopaminergic cells and primary mesencephalic neurons were exposed to 1-10 μM rottlerin for the duration of the experiment. DMSO (0.01%) was used as vehicle control. PKCδ-DN- and Lac Z-expressing N27 cells were only treated with 0.01% DMSO. […] Untreated or vehicle treated cells were used as control samples.
(§3) Cell and brain lysates containing equal amounts of protein were loaded in each lane and separated on a 10-12% SDS-PAGE gel as described previously (Kaul et al., 2003). After the separation, proteins were transferred to nitrocellulose membrane, and nonspecific binding sites were blocked by treating with 5% nonfat dry milk powder. The membranes were then treated with primary antibodies directed against PKCδ (rabbit polyclonal or mouse monoclonal, 1:2000 dilution), TH (rabbit polyclonal or mouse monoclonal, 1:1000), phospho TH-ser40 (rabbit polyclonal, 1:1000), phospho TH-ser31 TH (rabbit polyclonal, 1:1000), or PP2A (mouse monoclonal, 1:1000). The primary antibody treatments were followed by treatment with secondary HRP-conjugated anti-rabbit or anti-mouse IgG (1:2000) for 1 hr at RT. Secondary antibody-bound proteins were detected using Amersham's ECL chemiluminescence kit. To confirm equal protein loading, blots were reprobed with a β-actin antibody (1:5000 dilution). Western blot images were captured with a Kodak 2000 MM imaging system and data were analyzed using 1D Kodak imaging analysis software.
Immunostaining of PKCδ, TH, Ser40 P-TH and Ser31 P-TH was performed in PC12, N27 and primary mesencephalic neurons. Cells were grown on poly-L-Lysine-coated glass cover slips. After treatment, the cells were fixed with 4% paraformaldehyde and processed for immunohistochemical staining. First, non-specific sites were blocked with 5% normal goat serum containing 0.4% BSA and 0.2% Triton-X 100 in PBS for 20 min. Cells were then incubated with antibodies directed against PKCδ (1:500 dilution), TH (1:500 dilution), and P-THSer40 (1:500 dilution) overnight at 4° C. followed by incubation with either Alexa 488-conjugated (green, 1:1000) or Cy3-conjugated (red, 1:1000) secondary antibody for 1 hr at RT. Secondary antibody treatments were followed by incubation with Hoechst 33342 (10 μg/ml) for 3 min at room temperature to stain the nucleus. Then the coverslips containing stained cells were washed with PBS, mounted on a slide, and viewed under a Nikon inverted fluorescence microscope (Model TE-2000U); images were captured with a SPOT digital camera (Diagnostic Instruments, Sterling Heights, Mich.).

[8] = system: PKCδ; assay: PKCδ expression in siRNA-transfected N27 cells (Western blot); type: cell-based, rat; conditions: vs siRNA-NS
Protocol: Small interfering RNAs (siRNAs) were prepared by an in vitro transcription method as described previously (Yang et al., 2004). Cy-3 labeling of siRNA and transfections were carried out as described in a recent publication (Yang et al., 2004). We used the siRNA PKCδ-4 and non-specific siRNA (siRNA-NS) for this study.
as §3, with “To confirm equal protein loading, blots were reprobed with a β-actin antibody (1:5000 dilution).” left out

[9] = system: N27 cells; assay: Cellular DA and DOPAC levels in N27 cells (HPLC-EC); type: cell-based, rat; conditions: siRNA-transfected N27 cells
Protocol: as §2
DA and DOPAC levels in PC12, N27 cells and in brain striatal tissues were determined by high-performance liquid chromatography with electrochemical detection (HPLC-EC); samples were prepared as described previously (Kitazawa et al., 2001). The DA and DOPAC levels were measured as pg/mg protein and expressed as percent of control.

[10] = N27 cells, okadaic acid 2 μM for 2 hr

## C[n+]1ccc(-c2ccccc2)cc1 [MPP^+, 1-methyl-4-phenylpyridinium]
[1]
  cell death and loss of neurites length of TH+ neurons: 90%

## CN1CC=C(c2ccccc2)CC1 [MPTP, 1-methyl-4-phenyl-1,2,3,6-tetrahydropyridine]
[2]
  dopamine level in striatum: 14.49±3.77 pg DA/mg tissue weight
  reduction of striatal dopamine versus vehicle: −94%
[3]
  locomotor activity compared to control group: 55.17%
[4]
  cell loss in SNpc as compared to controls: 40%

## O=c1c(-c2ccc(O)cc2)coc2cc(O)cc(O)c12 [genistein]
[5]
  H2O2 and MPP+-induced apoptotic cell death (genistein: also PKCδ cleavage, kinase activation): dramatically inhibited

## C=C1[C@@H](O)[C@@H]2O[C@]3(CC[C@H](/C=C/[C@@H](C)[C@@H]4CC(C)=C[C@@]5(O[C@H](C[C@@](C)(O)C(=O)O)CC[C@H]5O)O4)O3)CC[C@H]2O[C@@H]1[C@@H](O)C[C@H](C)[C@H]1O[C@@]2(CCCCO2)CC[C@H]1C [okadaic acid]
[6]
  DOPA levels (TH activity): 1434±212.6 pg/10^6 cells/hr
[7]; [10]
  baseline THser40 phosphorylation levels versus untreated cells: increase
  levels of total TH versus untreated cells: similar

## PKCδ siRNA: siRNA PKCδ-4 directed against PKCδ; probably siRNA-d-4, SEQ ID NO:7 and 8 (chain 1 AACTGTTTGTGAATTTGCCTTCCTGTCTC; chain 2 AAAAGGCAAATTCACAAACAGCCTGTCTC; listed as DNA, chemistry not given here)
[7]; siRNA-transfected N27 cells
  TH-Ser40 (60 kDa band) densitometry, increase versus siRNA-NS: 2 fold
  total TH levels versus siRNA-NS: similar
[8]
  reduction in PKCδ expression: 55%
[9]
  increase in DOPAC versus siRNA-NS: 71%
  increase in the DA level versus siRNA-NS: 45%
